How the values were obtained:
Assay type in all cases: functional
A2780 [1] = test: Cell cycle arrest in human A2780 cells assessed as accumulation at S phase at 0.06 uM after 24 hrs by flow cytometric analysis (reference value: 22.72%)
WI-38 [2] = test: Cell cycle arrest in human WI38 cells assessed as accumulation at G2/M phase at 0.06 uM after 24 hrs by flow cytometric analysis (reference value: 17.36%)
WI-38 [3] = test: Cell cycle arrest in human WI38 cells assessed as accumulation at G1 phase at 1 uM after 24 hrs by flow cytometric analysis (reference value: 55.89%)
MCF7 [4] = test: Antiproliferative activity against ER positive human MCF7 cells assessed as cell growth inhibition after 72 hrs by MTT assay; settings: MCF7, 72 h
HCT-116 = test: Antiproliferative activity against human HCT116 cells assessed as cell growth inhibition after 72 hrs by MTT assay; settings: HCT-116, 72 h
LNCaP = test: Antiproliferative activity against AR positive human LNCAP cells assessed as cell growth inhibition after 72 hrs by MTT assay
A2780 [5] = test: Cell cycle arrest in human A2780 cells assessed as accumulation at G1 phase at 0.06 uM after 24 hrs by flow cytometric analysis (reference value: 54.89%)
A2780 [6] = test: Antiproliferative activity against human A2780 cells assessed as cell growth inhibition after 72 hrs by MTT assay; settings: A2780, 72 h
DU-145 = test: Antiproliferative activity against AR negative human DU145 cells assessed as cell growth inhibition after 72 hrs by MTT assay; settings: DU-145, 72 h
WI-38 [7] = test: Induction of apoptosis in human WI38 cells assessed as early-stage apoptotic cells at 0.06 uM after 48 hrs by annexin V/PI double staining (reference value: 2.16%)
A2780 [8] = test: Induction of apoptosis in human A2780 cells assessed as viable cells at 1 uM after 48 hrs by annexin V/PI double staining (reference value: 82.12%); settings: A2780, 48 h, read-out: Activity
A2780 [9] = test: Induction of apoptosis in human A2780 cells assessed as early-stage apoptotic cells at […] after 48 hrs by annexin V/PI double staining (reference value: 7.13%)
WI-38 [10] = test: Induction of apoptosis in human WI38 cells assessed as late-stage apoptotic cells at 0.06 uM after 48 hrs by annexin V/PI double staining (reference value: 16.26%)
A2780 [11] = test: Cell cycle arrest in human A2780 cells assessed as accumulation at S phase at 1 uM after 24 hrs by flow cytometric analysis (reference value: 22.72%)
A2780 [12] = test: Induction of apoptosis in human A2780 cells assessed as early-stage apoptotic cells at 1 uM after 48 hrs by annexin V/PI double staining (reference value: 7.13%)
A2780 [13] = test: Induction of apoptosis in human A2780 cells assessed as early-stage apoptotic cells at 0.06 uM after 48 hrs by annexin V/PI double staining (reference value: 7.13%)
WI-38 [14] = test: Induction of apoptosis in human WI38 cells assessed as viable cells at […] after 48 hrs by annexin V/PI double staining (reference value: 80.59%); settings: WI-38, 48 h, read-out: Activity
MCF7 [15] = test: Antiproliferative activity against human MCF7 cells assessed as cell growth inhibition after 72 hrs by MTT assay; settings: MCF7, 72 h
WI-38 [16] = test: Cell cycle arrest in human WI38 cells assessed as accumulation at G1 phase at […] after 24 hrs by flow cytometric analysis (reference value: 55.89%)
A2780 [17] = test: Cell cycle arrest in human A2780 cells assessed as accumulation at subG1 phase at […] after 24 hrs by flow cytometric analysis (reference value: 0.62%)
WI-38 [18] = test: Induction of apoptosis in human WI38 cells assessed as necrotic cells at 1 uM after 48 hrs by annexin V/PI double staining (reference value: 0.99%)
WI-38 [19] = test: Induction of apoptosis in human WI38 cells assessed as necrotic cells at […] after 48 hrs by annexin V/PI double staining (reference value: 0.99%)
A2780 [20] = test: Induction of apoptosis in human A2780 cells assessed as viable cells at 0.06 uM after 48 hrs by annexin V/PI double staining (reference value: 82.12%); settings: A2780, 48 h, read-out: Activity
A2780 [21] = test: Induction of apoptosis in human A2780 cells assessed as late-stage apoptotic cells at 0.06 uM after 48 hrs by annexin V/PI double staining (reference value: 10.20%)
A2780 [22] = test: Cell cycle arrest in human A2780 cells assessed as accumulation at S phase at […] after 24 hrs by flow cytometric analysis (reference value: 22.72%)
HeLa = test: Antiproliferative activity against human HeLa cells assessed as cell growth inhibition after 72 hrs by MTT assay
A2780 [23] = test: Cell cycle arrest in human A2780 cells assessed as accumulation at G2/M phase at 1 uM after 24 hrs by flow cytometric analysis (reference value: 21.81%)
WI-38 [24] = test: Cell cycle arrest in human WI38 cells assessed as accumulation at S phase at […] after 24 hrs by flow cytometric analysis (reference value: 16.25%)
A2780 [25] = test: Induction of apoptosis in human A2780 cells assessed as late-stage apoptotic cells at […] after 48 hrs by annexin V/PI double staining (reference value: 10.20%)
WI-38 [26] = test: Cell cycle arrest in human WI38 cells assessed as accumulation at S phase at 1 uM after 24 hrs by flow cytometric analysis (reference value: 16.25%)
A2780 [27] = test: Induction of apoptosis in human A2780 cells assessed as necrotic cells at 0.06 uM after 48 hrs by annexin V/PI double staining (reference value: 0.53%)
WI-38 [28] = test: Induction of apoptosis in human WI38 cells assessed as early-stage apoptotic cells at 1 uM after 48 hrs by annexin V/PI double staining (reference value: 2.16%)
A2780 [29] = test: Induction of apoptosis in human A2780 cells assessed as necrotic cells at 1 uM after 48 hrs by annexin V/PI double staining (reference value: 0.53%)
A2780 [30] = test: Cell cycle arrest in human A2780 cells assessed as accumulation at G2/M phase at 0.06 uM after 24 hrs by flow cytometric analysis (reference value: 21.81%)
WI-38 [31] = test: Induction of apoptosis in human WI38 cells assessed as late-stage apoptotic cells at […] after 48 hrs by annexin V/PI double staining (reference value: 16.26%)
A2780 [32] = test: Induction of apoptosis in human A2780 cells assessed as viable cells at […] after 48 hrs by annexin V/PI double staining (reference value: 82.12%); settings: A2780, 48 h, read-out: Activity
A2780 [33] = test: Cell cycle arrest in human A2780 cells assessed as accumulation at G1 phase at […] after 24 hrs by flow cytometric analysis (reference value: 54.89%)
WI-38 [34] = test: Induction of apoptosis in human WI38 cells assessed as necrotic cells at 0.06 uM after 48 hrs by annexin V/PI double staining (reference value: 0.99%)
[35] = Antiproliferative activity against human PANC1 cells assessed as cell growth inhibition after 72 hrs by MTT assay; settings: PANC-1, 72 h

Q: Which results are given for `COc1cc(OC)c(/C=C/S(=O)(=O)Cc2ccc(OC)c(NCC(=O)O)c2)c(OC)c1` [RIGOSERTIB]?
A: Activity (A2780 [1]): 26.34%; Activity (WI-38 [2]): 18%; Activity (WI-38 [3]): 53.8%; GI50 (MCF7 [4]): 50 nM; GI50 (HCT-116): 70 nM; GI50 (LNCaP): 25 nM; Activity (A2780 [5]): 53.41%; GI50 (A2780 [6]): 62 nM; GI50 (DU-145): 75 nM; Activity (WI-38 [7]): 1.68%; viability at 1 µM (A2780 [8]): 26.6%; Activity (A2780 [9]): 38.11%; Activity (WI-38 [10]): 11.54%; Activity (A2780 [11]): 33.83%; Activity (A2780 [12]): 50.22%; Activity (A2780 [13]): 3.82%; viability at […] (WI-38 [14]): 73.2%; GI50 (MCF7 [15]): 50 nM; Activity (WI-38 [16]): 54.39%; Activity (A2780 [17]): 5.98%; Activity (WI-38 [18]): 2.99%; Activity (WI-38 [19]): 1.89%; viability at 0.06 µM (A2780 [20]): 89.5%; Activity (A2780 [21]): 6.27%; Activity (A2780 [22]): 24.81%; GI50 (HeLa): 12 nM; Activity (A2780 [23]): 60.57%; Activity (WI-38 [24]): 9.32%; Activity (A2780 [25]): 14.92%; Activity (WI-38 [26]): 10.36%; Activity (A2780 [27]): 0.34%; Activity (WI-38 [28]): 8.88%; Activity (A2780 [29]): 1.19%; Activity (A2780 [30]): 19.63%; Activity (WI-38 [31]): 19.49%; viability at […] (A2780 [32]): 46.2%; Activity (A2780 [33]): 37.71%; Activity (WI-38 [34]): 1.25%; GI50 [35]: 39 nM

Source: ChEMBL document CHEMBL3259791, “Discovery of (E)-3-((styrylsulfonyl)methyl)pyridine and (E)-2-((styrylsulfonyl)methyl)pyridine derivatives as anticancer agents: synthesis, structure-activity relationships, and biological activities” (J Med Chem, 2014)
